According to patent US9296775B2, “Pyrazole compounds” (Eli Lilly and Company, priority 2012, dated 2016):

Assays:
[1] = system: male Sprague Dawley rats with STZ-induced diabetes; test: Mixed meal tolerance test in male rats with streptozotocin induced diabetes; format: in vivo, rat; conditions: for Glucose Values 0 min. / Glucose Values 20 min. / Glucose Values 40 min. / Glucose Values 60 min. / Glucose Values 120 min. / Baseline Adjusted AUC: mean ± SE; for Baseline Adjusted AUC: glucose AUC in MTT
Description: Rats which have been administered streptozotocin (STZ) develop diabetes mellitus. Agents which modulate glucose levels in these animals are believed to be useful in the treatment of diabetes in humans.
The test compound is formulated by adding a vehicle of 1% hydroxyethylcellulose (HEC), 0.25% Tween® 80 w/ antifoam 0.05% to preweighed test compound to make a 2.5 mg/ml solution. The mixture is probe sonicated for approximately 30 seconds. The resulting solution is used as a stock solution, from which the lower concentration dose solutions are prepared by dilution with the vehicle. STZ, 45 mg/kg, is formulated by dissolving in 0.1M Citrate buffer in 3 ml aliquots and stored in the dark on ice, when not being administered. A high fat content mixed meal (Bio-Serv® Rodent Diet F3282 High Fat) comprising Fat Calories (60%), Carbohydrate Calories (26%) and Protein Calories (15%) is utilized. Single housed Sprague Dawley rats are allowed to acclimate for a period of 3 to 7 days.
In an effort to ensure that the animals have not recently fed, STZ is administered in the afternoon, approximately six hours into the light cycle (lights on 6 am, lights off 6 pm). The animals are anesthetized with isoflurane and STZ is delivered via tail vein injection. Once animals regain consciousness, they are returned to housing and allowed to recover for 7 days.
On the two days immediately prior to the meal tolerance test (MTT) all rats are given a small amount (2-4 g) of the F3282 diet, so they became acclimated to it prior to receiving it during the experiment. On the evening before the experiment, the rats are moved into clean cages and their food is removed. The following morning animals are weighed and a blood sample is taken by tail snip for glucose measurement (Abbott AlphaTrak glucometers: code 29). Animals are grouped n=6 based on fasted body weight and glucose. Thirty minutes after the test compound is orally administered, two glucose measurements are collected. Then a five gram pellet of Bio-Serv® diet 3282 is given. After 20 minutes remaining food is taken away and weighed. Blood samples are taken at 20, 40, 60 and 120 minutes for glucose measurement.

[2] = system: normal glycemic C57Bl/6 mouse; test: Oral glucose tolerance test (OGTT); format: in vivo; conditions: for Glucose 0 Minute: 3 h before dextrose 3 g/kg; for Glucose 0 Minute / Glucose 20 Minute / Glucose 40 Minute / Glucose 60 Minute / Glucose 120 Minute / Baseline Adjusted AUC: mean ± SE; for Glucose 20 Minute: 20 min after dextrose; for Glucose 40 Minute: 40 min after dextrose; for Glucose 60 Minute: 60 min after dextrose; for Glucose 120 Minute: 120 min after dextrose; for Baseline Adjusted AUC: glucose AUC during OGTT
Description: The test compound is formulated by adding a vehicle of 1% hydroxyethylcellulose, 0.25% Tween® 80 w/ antifoam 0.05% to preweighed test compound to make a 1 mg/ml solution. The mixture is probe sonicated for approximately 30 seconds. The resulting solution is used as a stock solution from which the lower concentration dose solutions are prepared by dilution with the vehicle.
Single housed C57Bl/6 mice are fasted overnight by removing access to food the late afternoon before test day. The following morning, the mice are weighed and a single fasting blood sample is taken by tail snip to measure glucose by glucometer (Roche AccuChek). Study groups (n=5) are determined based on fasted blood glucose and comprise preferably animals in the range of 80-100 mg/dl glucose.
After grouping, the first mouse is orally gavaged with 10 ml/kg test compound preparation and a timer started. Each subsequent animal is dosed a minute and a half apart. Three hours after the first compound treatment is started, a baseline blood sample is taken for measuring glucose (from the first animal, via tail snip). The animal is then immediately given an oral dose of 50% dextrose (Hospira) at 3 g/kg. Blood samples are taken for glucose, exactly a minute and half apart, by tail vein so that blood is collected in each animal at 20, 40, 60 and 120 minutes after the dextrose dose.

[3] = result in words, Example 1 10 and 30 mg/kg, Acarbose 60 mg/kg

## C[C@H]1O[C@H](O[C@H]2[C@H](O)[C@@H](O)[C@@H](O[C@H]3[C@H](O)[C@@H](O)C(O)O[C@@H]3CO)O[C@@H]2CO)[C@H](O)[C@@H](O)[C@@H]1N[C@H]1C=C(CO)[C@@H](O)[C@H](O)[C@H]1O (stereo partly shown) [Acarbose, reference compound]
[1]; 60 mg/kg oral
  Glucose Values 0 min.: 124 ± 16.9 mg/dL
  Glucose Values 20 min.: 181 ± 22.8 mg/dL
  Glucose Values 40 min.: 301.3 ± 51.2 mg/dL
  Glucose Values 60 min.: 371.5 ± 63.9 mg/dL
  Glucose Values 120 min.: 433.7 ± 83 mg/dL
  Baseline Adjusted AUC: 23877 ± 4649
[1]; [3]
  glucose baseline adjusted AUCs in the MTT: significantly decreases
  glucose in the MTT compared to the vehicle controls: did not significantly decrease

## Cc1cc(/C=C/CCN2CCCC3(CCNCC3)C2)ccc1Cc1c(O[C@@H]2O[C@H](CO)[C@@H](O)[C@H](O)[C@H]2O)n[nH]c1C(C)C [Example 1, 4-{4-[(1E)-4-(2,9-diazaspiro[5.5]undec-2-yl)but-1-en-1-yl]-2-methylbenzyl}-5-(propan-2-yl)-1H-pyrazol-3-yl beta-D-glucopyranoside]
[2]; 0.3 mg/kg oral
  Glucose 0 Minute: 78 ± 4.2 mg/dL
  Glucose 20 Minute: 185 ± 13.7 mg/dL
  Glucose 40 Minute: 197 ± 14.7 mg/dL
  Glucose 60 Minute: 164 ± 6.3 mg/dL
  Glucose 120 Minute: 121 ± 11.8 mg/dL
  Baseline Adjusted AUC: 5400 ± 519^
[2]; 1 mg/kg oral
  Glucose 0 Minute: 76 ± 3.3 mg/dL
  Glucose 20 Minute: 147 ± 8.3 mg/dL
  Glucose 40 Minute: 171 ± 11.1 mg/dL
  Glucose 60 Minute: 162 ± 5.8 mg/dL
  Glucose 120 Minute: 109 ± 7.3 mg/dL
  Baseline Adjusted AUC: 4158 ± 374^
[2]; 3 mg/kg oral
  Glucose 0 Minute: 72 ± 2.6 mg/dL
  Glucose 20 Minute: 133 ± 7.1 mg/dL
  Glucose 40 Minute: 150 ± 7.5 mg/dL
  Glucose 60 Minute: 155 ± 7.2 mg/dL
  Glucose 120 Minute: 115 ± 10 mg/dL
  Baseline Adjusted AUC: 3606 ± 421
[2]; 10 mg/kg oral
  Glucose 0 Minute: 78 ± 5.4 mg/dL
  Glucose 20 Minute: 124 ± 1.2 mg/dL
  Glucose 40 Minute: 137 ± 5.4 mg/dL
  Glucose 60 Minute: 138 ± 6.1 mg/dL
  Glucose 120 Minute: 114 ± 4.3 mg/dL
  Baseline Adjusted AUC: 2693 ± 309
[2]; 0.3-10 mg/kg, result in words
  average maximum concentration of plasma glucose (Cmax) during the OGTT: dose dependently decreases
  average time that it takes for glucose to reach maximum concentration (Tmax): increasing
[1]; 10 mg/kg oral
  Glucose Values 0 min.: 139 ± 16.1 mg/dL
  Glucose Values 20 min.: 221.2 ± 26.3 mg/dL
  Glucose Values 40 min.: 268.7 ± 29 mg/dL
  Glucose Values 60 min.: 330 ± 36.7 mg/dL
  Glucose Values 120 min.: 490.8 ± 39.2 mg/dL
  Baseline Adjusted AUC: 22432 ± 2234
[1]; 30 mg/kg oral
  Glucose Values 0 min.: 137.4 ± 26.9 mg/dL
  Glucose Values 20 min.: 195.4 ± 44.8 mg/dL
  Glucose Values 40 min.: 232 ± 52.2 mg/dL
  Glucose Values 60 min.: 263.9 ± 62.2 mg/dL
  Glucose Values 120 min.: 355.3 ± 73.2 mg/dL
  Baseline Adjusted AUC: 14649 ± 3673
